Measured values from ChEMBL document CHEMBL1201862, “PubChem BioAssay data set” (2004).
Active and inactive are the calls of the source.

Tests used:
[1] = biological target: Beta-galactosidase (Escherichia coli, UniProt Q8VNN2); test: PubChem AID 485352; format: functional
[2] = biological target: T1, Type-1 angiotensin II receptor (Homo sapiens, UniProt P30556); test: AT1 receptor antagonists, dose response, selectivity assay for APJ receptor antagonist project, cell-based, uHTS hits (AID 463214); format: functional;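 also: antagonist potency against angiotensin II stimulated AT1 response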
T1 sequence (P30556 whole entry): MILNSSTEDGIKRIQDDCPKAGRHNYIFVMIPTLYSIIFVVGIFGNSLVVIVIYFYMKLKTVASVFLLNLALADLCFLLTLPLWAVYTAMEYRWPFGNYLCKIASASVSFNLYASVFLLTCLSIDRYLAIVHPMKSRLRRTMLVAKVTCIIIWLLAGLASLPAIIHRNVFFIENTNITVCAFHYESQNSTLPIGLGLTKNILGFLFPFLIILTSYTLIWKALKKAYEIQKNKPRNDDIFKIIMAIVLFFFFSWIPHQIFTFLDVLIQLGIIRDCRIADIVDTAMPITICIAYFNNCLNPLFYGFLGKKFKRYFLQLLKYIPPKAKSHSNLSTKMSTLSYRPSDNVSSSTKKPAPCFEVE

[3] = tested on: HEK293; test: inhibitors of LMP1-driven NF-kB reporter, dose response, cell-based, HEK293, luciferase, cherry-pick (AID 588343); format: functional; conditions: Homo sapiens
[4] = biological target: T2, Cytochrome P450 2C9 (Homo sapiens, UniProt P11712)
T2 sequence (P11712 whole entry): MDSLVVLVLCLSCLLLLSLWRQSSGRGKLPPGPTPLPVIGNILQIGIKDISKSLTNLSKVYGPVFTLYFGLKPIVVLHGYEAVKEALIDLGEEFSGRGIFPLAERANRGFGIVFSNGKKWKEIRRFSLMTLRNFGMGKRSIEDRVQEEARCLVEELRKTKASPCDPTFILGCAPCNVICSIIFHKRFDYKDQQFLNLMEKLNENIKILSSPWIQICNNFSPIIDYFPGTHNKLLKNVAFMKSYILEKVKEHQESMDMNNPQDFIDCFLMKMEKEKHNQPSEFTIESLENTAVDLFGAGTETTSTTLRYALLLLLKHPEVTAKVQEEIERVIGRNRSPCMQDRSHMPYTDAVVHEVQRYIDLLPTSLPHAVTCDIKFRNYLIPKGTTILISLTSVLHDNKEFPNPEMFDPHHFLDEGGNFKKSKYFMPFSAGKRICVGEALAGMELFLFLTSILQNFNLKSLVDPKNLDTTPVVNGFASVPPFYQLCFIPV

[5] = biological target: T3, Latent membrane protein 1 (Human herpesvirus 4 (strain B95-8), UniProt P03230); test: TES1-eGFP NF-kB reporter inhibition versus Tet-On dsRED, dose response, selectivity assay for LMP1 NF-kB inhibitor project, imaging, HEK293T, dual-color eGFP/dsRED, cherry-picks (AID 588398); format: functional, cell-based
T3 sequence (P03230 whole entry): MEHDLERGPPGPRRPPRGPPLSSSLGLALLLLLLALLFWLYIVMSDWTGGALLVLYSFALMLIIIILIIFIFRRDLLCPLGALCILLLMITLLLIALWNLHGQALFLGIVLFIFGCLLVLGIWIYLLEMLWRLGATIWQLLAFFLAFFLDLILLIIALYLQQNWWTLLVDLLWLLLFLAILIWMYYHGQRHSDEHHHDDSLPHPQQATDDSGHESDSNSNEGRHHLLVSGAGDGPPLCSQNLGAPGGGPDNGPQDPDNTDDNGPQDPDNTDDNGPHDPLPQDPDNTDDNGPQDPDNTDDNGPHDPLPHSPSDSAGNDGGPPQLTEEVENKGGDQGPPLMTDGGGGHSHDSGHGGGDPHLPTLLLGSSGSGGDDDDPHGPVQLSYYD

[6] = inhibitors of firefly luciferase expression or activity, dose response, H4 neuroglioma cells, luminescence (AID 1990); format: functional, cell-based
[7] = inhibitors of SNCA 5'UTR-driven reporter translation, confirmation, H4 neuroglioma cells, luminescence (AID 1988); format: functional, cell-based
[8] = tested on: Vero; test: cells; format: functional, cell-based; conditions: Chlorocebus sabaeus
[9] = Luminescence Cell-Based Dose Response HTS to Identify Inhibitors of 5'UTR Stem-Loop Driven Prion Protein mRNA Translation in H4 Neuroglioblastoma Cells. [Related pubchem assays: 1827 (Project Summary), 1813 (Primary HTS)]; format: functional
[10] = tested on: Escherichia coli; test: microbe, parasite or virus in culture
[11] = biological target: T2, Cytochrome P450 2C9; remark: listed apart in the source
[12] = biological target: T4, Cytochrome P450 1A2 (Homo sapiens, UniProt P05177);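 also: PubChem cytochrome P450 panel assay, CYP1A2 panel member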
T4 sequence (P05177 whole entry): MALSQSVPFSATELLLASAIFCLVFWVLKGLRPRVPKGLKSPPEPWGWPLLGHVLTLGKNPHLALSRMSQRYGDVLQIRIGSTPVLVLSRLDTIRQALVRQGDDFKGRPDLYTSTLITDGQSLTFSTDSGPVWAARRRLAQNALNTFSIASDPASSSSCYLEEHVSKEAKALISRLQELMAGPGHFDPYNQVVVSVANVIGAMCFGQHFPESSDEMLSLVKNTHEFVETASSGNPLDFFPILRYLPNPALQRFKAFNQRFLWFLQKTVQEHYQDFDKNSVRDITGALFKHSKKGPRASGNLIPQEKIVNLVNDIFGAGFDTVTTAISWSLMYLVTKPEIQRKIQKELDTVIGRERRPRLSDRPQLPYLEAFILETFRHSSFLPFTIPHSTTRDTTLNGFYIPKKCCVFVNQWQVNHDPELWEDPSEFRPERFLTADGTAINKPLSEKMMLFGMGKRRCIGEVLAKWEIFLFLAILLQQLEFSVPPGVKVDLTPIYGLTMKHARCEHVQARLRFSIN

[13] = biological target: Cytochrome P450 2C19 (Homo sapiens, UniProt P33261); test: Cytochrome panel assay with activity outcomes. Panel member name: p450-cyp2c19 Compounds with AC50 equal or less than 10 uM are considered active; format: functional; conditions: read-out: AC50
Cytochrome P450 2C19, sequence (P33261 whole entry): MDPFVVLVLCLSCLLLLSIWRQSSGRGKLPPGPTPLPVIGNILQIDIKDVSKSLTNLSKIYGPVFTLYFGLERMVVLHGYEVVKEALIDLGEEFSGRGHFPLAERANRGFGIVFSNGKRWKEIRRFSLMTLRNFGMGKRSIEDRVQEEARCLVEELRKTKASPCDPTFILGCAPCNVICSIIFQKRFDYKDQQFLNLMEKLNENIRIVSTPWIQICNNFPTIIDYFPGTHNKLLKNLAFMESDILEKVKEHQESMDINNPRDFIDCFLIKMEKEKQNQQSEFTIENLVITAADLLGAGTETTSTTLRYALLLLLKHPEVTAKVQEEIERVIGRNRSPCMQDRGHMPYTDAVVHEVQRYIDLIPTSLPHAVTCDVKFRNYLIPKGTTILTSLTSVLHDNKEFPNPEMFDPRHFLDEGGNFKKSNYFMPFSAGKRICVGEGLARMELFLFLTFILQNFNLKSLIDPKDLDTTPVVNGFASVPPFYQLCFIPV

[14] = biological target: T5, Short transient receptor potential channel 4 (Mus musculus, UniProt Q9QUQ5); test: mouse TRPC4 channel activators, dose response, cell-based, HEK293 TRPC4/mu-opioid, Fluo-4 calcium (AID 434937); format: functional
T5 sequence (Q9QUQ5 whole entry): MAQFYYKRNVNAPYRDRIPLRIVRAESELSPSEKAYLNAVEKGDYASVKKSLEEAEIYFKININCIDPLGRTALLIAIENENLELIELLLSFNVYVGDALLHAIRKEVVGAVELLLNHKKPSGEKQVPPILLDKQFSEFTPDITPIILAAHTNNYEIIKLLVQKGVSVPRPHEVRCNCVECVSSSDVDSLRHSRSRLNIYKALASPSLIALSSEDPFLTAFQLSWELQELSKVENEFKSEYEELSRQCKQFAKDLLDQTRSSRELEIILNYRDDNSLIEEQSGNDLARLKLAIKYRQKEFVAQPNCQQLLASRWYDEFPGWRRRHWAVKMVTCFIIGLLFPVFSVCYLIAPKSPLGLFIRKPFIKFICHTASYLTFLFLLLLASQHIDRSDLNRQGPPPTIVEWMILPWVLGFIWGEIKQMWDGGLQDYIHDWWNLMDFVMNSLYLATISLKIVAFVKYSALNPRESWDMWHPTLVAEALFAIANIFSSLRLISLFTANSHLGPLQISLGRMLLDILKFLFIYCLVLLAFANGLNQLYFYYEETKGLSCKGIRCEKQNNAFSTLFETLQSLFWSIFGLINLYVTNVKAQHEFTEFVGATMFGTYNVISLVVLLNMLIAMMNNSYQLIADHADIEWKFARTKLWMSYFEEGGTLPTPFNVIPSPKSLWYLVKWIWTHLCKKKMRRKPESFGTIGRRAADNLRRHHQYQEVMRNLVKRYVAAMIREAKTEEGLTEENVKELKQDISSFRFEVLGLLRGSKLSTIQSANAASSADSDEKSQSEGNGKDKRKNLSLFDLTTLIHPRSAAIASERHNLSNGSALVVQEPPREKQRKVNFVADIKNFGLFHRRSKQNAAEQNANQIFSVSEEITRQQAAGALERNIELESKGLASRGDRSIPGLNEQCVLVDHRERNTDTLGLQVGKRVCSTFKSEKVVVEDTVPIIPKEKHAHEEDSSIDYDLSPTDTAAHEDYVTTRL

Beta-galactosidase, sequence (Q8VNN2 whole entry): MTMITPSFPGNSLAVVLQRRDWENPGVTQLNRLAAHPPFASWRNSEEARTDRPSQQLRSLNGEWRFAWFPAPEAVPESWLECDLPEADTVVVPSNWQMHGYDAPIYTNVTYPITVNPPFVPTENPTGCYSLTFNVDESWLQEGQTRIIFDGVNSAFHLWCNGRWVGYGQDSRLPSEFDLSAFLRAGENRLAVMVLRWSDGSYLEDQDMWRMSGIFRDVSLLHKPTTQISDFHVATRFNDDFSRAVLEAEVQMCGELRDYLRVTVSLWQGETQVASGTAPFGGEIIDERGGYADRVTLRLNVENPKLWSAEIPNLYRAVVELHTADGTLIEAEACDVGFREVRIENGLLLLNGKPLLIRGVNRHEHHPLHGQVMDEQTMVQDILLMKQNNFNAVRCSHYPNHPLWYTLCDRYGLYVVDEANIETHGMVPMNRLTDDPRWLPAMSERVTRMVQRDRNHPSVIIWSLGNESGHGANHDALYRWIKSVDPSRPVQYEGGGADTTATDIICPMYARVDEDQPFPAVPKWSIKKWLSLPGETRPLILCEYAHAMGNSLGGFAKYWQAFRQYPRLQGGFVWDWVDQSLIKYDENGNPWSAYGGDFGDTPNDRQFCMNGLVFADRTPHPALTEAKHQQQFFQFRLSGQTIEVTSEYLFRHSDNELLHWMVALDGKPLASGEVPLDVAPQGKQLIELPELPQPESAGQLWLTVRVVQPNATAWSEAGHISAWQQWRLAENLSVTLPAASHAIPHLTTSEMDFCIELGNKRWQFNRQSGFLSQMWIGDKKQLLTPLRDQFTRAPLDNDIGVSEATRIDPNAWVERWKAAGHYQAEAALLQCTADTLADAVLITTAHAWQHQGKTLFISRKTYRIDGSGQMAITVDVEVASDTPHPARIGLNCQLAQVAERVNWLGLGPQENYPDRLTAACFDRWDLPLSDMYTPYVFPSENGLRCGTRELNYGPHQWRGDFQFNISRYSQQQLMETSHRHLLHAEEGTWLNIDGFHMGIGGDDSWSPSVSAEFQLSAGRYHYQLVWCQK

## O=C(CN1C(=O)C2C3CC(C(Br)C3Br)C2C1=O)OCC(=O)c1cccc([N+](=O)[O-])c1 (stereo unspecified)
[1]
  EC50: > 40 µM (inactive)
[2]
  IC50: 20.4 µM (not active)

## O=C1/C(=C/c2cccnc2)SC(=S)N1Cc1ccco1
[3]
  AC50: 0.758 µM (active)
[4]
  AC50: 6.31 µM (inconclusive)
[5]
  AC50: 39.5 µM (active)

## CC(C)(C)OC(=O)[C@H](Cc1ccccc1)NC(=O)c1[nH]cnc1C(=O)N1CCN(C(=O)OC(C)(C)C)CC1
[6]
  EC50: 61.6 µM (active)
[7]
  EC50: 26.6 µM (active)
[8]
  IC50: 18.3 µM (active)
[9]
  EC50: 20 µM (active)

## Cc1ccc(NC(S)=NCCC2=CCCCC2)cc1
[10]
  AC50: 115 µM (active)

## CC(=O)NC(Cc1c[nH]cn1)C(=O)O (stereo unspecified)
[10]
  AC50: 29.2 µM (active)

## Cc1ccc(C(=O)NC2CCCCC2)cc1
[11]
  AC50: inconclusive
[12]
  AC50: 22.4 µM (inconclusive)
[13]
  AC50: 25.1 µM (inconclusive)

## Cc1noc(C)c1C(=O)NNc1ccc(C(C)C)cc1
[1]
  EC50: > 40 µM (inactive)
[2]
  IC50: 3.68 µM (active)

## Cc1ccc2c(c1)nnn2C1CCN(CC(=O)N2c3ccccc3CC2C)CC1 (stereo unspecified)
[11]
  AC50: inconclusive
[6]
  EC50: > 120 µM (not active)
[7]
  EC50: 81.6 µM (active)
[12]
  AC50: 6.31 µM (inconclusive)
[9]
  EC50: > 120 µM (not active)

## CCC(=O)NC(C)C(c1cccs1)N1CCN(c2ccccc2)CC1 (stereo unspecified)
[14]
  EC50: 0.421 µM (active)

## Cn1c(N)c(C(=O)COC(=O)CCCN2C(=O)c3ccccc3C2=O)c(=O)n(C)c1=O
[10]
  AC50: 31.9 µM (active)

## COc1ccc(C)c(NC(=O)NCCc2c[nH]cn2)c1
[14]
  EC50: 1.88 µM (active)

## Cn1c(C(N)=O)cnc1Sc1ncc(C(F)(F)F)cc1Cl
[11]
  AC50: inconclusive
[12]
  AC50: 28.2 µM (inconclusive)
